{"source": "paper PMC7156458", "about": "“Synthetic biology based construction of biological activity-related library of fungal decalin-containing diterpenoid pyrones” (Nature Communications, 2020)", "target": "Aβ42 (Homo sapiens, UniProt P05067)", "sequence (P05067 672-713)": "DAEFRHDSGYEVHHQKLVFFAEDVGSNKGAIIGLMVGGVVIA", "assay": "Th-T (thioflavin-T) assay of Aβ42 aggregation", "type": "biochemical", "conditions": "for Th-T assay plate reading, mean of three wells (Supplementary Fig. 47): source data, Ab alone and No Ab as controls", "data": [{"smiles": "C=C1CCC2C(C)(CCC=C(C)C)C(O)CCC2(C)C1Cc1c(OC)oc(C)c(C)c1=O", "note": "(stereo not drawn) [Compound 15, viridoxin A hydrolysate]", "values": [{"measurement": "Th-T fluorescence, mean of three wells", "setting": "Aβ42 aggregation time course, reading M117", "result": 3.35}, {"measurement": "Th-T fluorescence, mean of three wells", "setting": "Aβ42 aggregation time course, reading M118", "result": 3.314}, {"measurement": "Th-T fluorescence, mean of three wells", "setting": "Aβ42 aggregation time course, reading M119", "result": 3.3216}, {"measurement": "Th-T fluorescence, mean of three wells", "setting": "Aβ42 aggregation time course, reading M120", "result": 3.354}, {"measurement": "Th-T fluorescence, mean of three wells", "setting": "Aβ42 aggregation time course, reading M121", "result": 3.335}, {"measurement": "Th-T fluorescence, mean of three wells", "setting": "Aβ42 aggregation time course, reading M122", "result": 3.364}, {"measurement": "Th-T fluorescence, mean of three wells", "setting": "Aβ42 aggregation time course, reading M123", "result": 3.352}, {"measurement": "Th-T fluorescence, mean of three wells", "setting": "Aβ42 aggregation time course, reading M124", "result": 3.339}, {"measurement": "Th-T fluorescence, mean of three wells", "setting": "Aβ42 aggregation time course, reading M125", "result": 3.327}, {"measurement": "Th-T fluorescence, mean of three wells", "setting": "Aβ42 aggregation time course, reading M126", "result": 3.362}, {"measurement": "Th-T fluorescence, mean of three wells", "setting": "Aβ42 aggregation time course, reading M127", "result": 3.317}, {"measurement": "Th-T fluorescence, mean of three wells", "setting": "Aβ42 aggregation time course, reading M128", "result": 3.323}, {"measurement": "Th-T fluorescence, mean of three wells", "setting": "Aβ42 aggregation time course, reading M129", "result": 3.297}, {"measurement": "Th-T fluorescence, mean of three wells", "setting": "Aβ42 aggregation time course, reading M130", "result": 3.34}, {"measurement": "Th-T fluorescence, mean of three wells", "setting": "Aβ42 aggregation time course, reading M131", "result": 3.327}, {"measurement": "Th-T fluorescence, mean of three wells", "setting": "Aβ42 aggregation time course, reading M132", "result": 3.341}, {"measurement": "Th-T fluorescence, mean of three wells", "setting": "Aβ42 aggregation time course, reading M133", "result": 3.324}, {"measurement": "Th-T fluorescence, mean of three wells", "setting": "Aβ42 aggregation time course, reading M134", "result": 3.304}, {"measurement": "Th-T fluorescence, mean of three wells", "setting": "Aβ42 aggregation time course, reading M135", "result": 3.315}, {"measurement": "Th-T fluorescence, mean of three wells", "setting": "Aβ42 aggregation time course, reading M136", "result": 3.347}, {"measurement": "Th-T fluorescence, mean of three wells", "setting": "Supplementary Fig. 47, reading M137", "result": 3.349}, {"measurement": "Th-T fluorescence, mean of three wells", "setting": "Supplementary Fig. 47, reading M138", "result": 3.365}, {"measurement": "Th-T fluorescence, mean of three wells", "setting": "Supplementary Fig. 47, reading M139", "result": 3.354}, {"measurement": "Th-T fluorescence, mean of three wells", "setting": "Supplementary Fig. 47, reading M140", "result": 3.356}, {"measurement": "Th-T fluorescence, mean of three wells", "setting": "Supplementary Fig. 47, reading M141", "result": 3.3427}, {"measurement": "Th-T fluorescence, mean of three wells", "setting": "Supplementary Fig. 47, reading M142", "result": 3.34}, {"measurement": "Th-T fluorescence, mean of three wells", "setting": "Supplementary Fig. 47, reading M143", "result": 3.336}, {"measurement": "Th-T fluorescence, mean of three wells", "setting": "Supplementary Fig. 47, reading M144", "result": 3.346}, {"measurement": "Th-T fluorescence, mean of three wells", "setting": "Supplementary Fig. 47, reading M145", "result": 3.328}, {"measurement": "Th-T assay plate reading, mean of three wells (Supplementary Fig. 47)", "setting": "measurement M1", "result": 0.2276}, {"measurement": "Th-T assay plate reading, mean of three wells (Supplementary Fig. 47)", "setting": "measurement M2", "result": 0.2029}, {"measurement": "Th-T assay plate reading, mean of three wells (Supplementary Fig. 47)", "setting": "measurement M3", "result": 0.2068}, {"measurement": "Th-T assay plate reading, mean of three wells (Supplementary Fig. 47)", "setting": "measurement M4", "result": 0.2103}, {"measurement": "Th-T assay plate reading, mean of three wells (Supplementary Fig. 47)", "setting": "measurement M5", "result": 0.2149}, {"measurement": "Th-T assay plate reading, mean of three wells (Supplementary Fig. 47)", "setting": "measurement M6", "result": 0.2264}, {"measurement": "Th-T assay plate reading, mean of three wells (Supplementary Fig. 47)", "setting": "measurement M7", "result": 0.2421}, {"measurement": "Th-T assay plate reading, mean of three wells (Supplementary Fig. 47)", "setting": "measurement M8", "result": 0.3484}, {"measurement": "Th-T assay plate reading, mean of three wells (Supplementary Fig. 47)", "setting": "measurement M9", "result": 0.4623}, {"measurement": "Th-T assay plate reading, mean of three wells (Supplementary Fig. 47)", "setting": "measurement M10", "result": 0.8904}, {"measurement": "Th-T assay plate reading, mean of three wells (Supplementary Fig. 47)", "setting": "measurement M11", "result": 1.43}, {"measurement": "Th-T assay plate reading, mean of three wells (Supplementary Fig. 47)", "setting": "measurement M12", "result": 1.748}, {"measurement": "Th-T assay plate reading, mean of three wells (Supplementary Fig. 47)", "setting": "measurement M13", "result": 1.906}, {"measurement": "Th-T assay plate reading, mean of three wells (Supplementary Fig. 47)", "setting": "measurement M14", "result": 1.9845}, {"measurement": "Th-T assay plate reading, mean of three wells (Supplementary Fig. 47)", "setting": "measurement M15", "result": 1.9935}, {"measurement": "Th-T assay plate reading, mean of three wells (Supplementary Fig. 47)", "setting": "measurement M16", "result": 2.026}, {"measurement": "Th-T fluorescence, mean of three wells", "setting": "reading M17, Supplementary Fig. 47 source data", "result": 2.072}, {"measurement": "Th-T fluorescence, mean of three wells", "setting": "time-course reading M97, Supplementary Fig. 47 source data", "result": 3.281}, {"measurement": "Th-T fluorescence, mean of three wells", "setting": "time-course reading M98, Supplementary Fig. 47 source data", "result": 3.314}, {"measurement": "Th-T fluorescence, mean of three wells", "setting": "time-course reading M99, Supplementary Fig. 47 source data", "result": 3.322}, {"measurement": "Th-T fluorescence, mean of three wells", "setting": "time-course reading M100, Supplementary Fig. 47 source data", "result": 3.3481}, {"measurement": "Th-T fluorescence, mean of three wells", "setting": "time-course reading M101, Supplementary Fig. 47 source data", "result": 3.295}, {"measurement": "Th-T fluorescence, mean of three wells", "setting": "time-course reading M102, Supplementary Fig. 47 source data", "result": 3.298}, {"measurement": "Th-T fluorescence, mean of three wells", "setting": "time-course reading M103, Supplementary Fig. 47 source data", "result": 3.312}, {"measurement": "Th-T fluorescence, mean of three wells", "setting": "time-course reading M104, Supplementary Fig. 47 source data", "result": 3.321}, {"measurement": "Th-T fluorescence, mean of three wells", "setting": "time-course reading M105, Supplementary Fig. 47 source data", "result": 3.301}, {"measurement": "Th-T fluorescence, mean of three wells", "setting": "time-course reading M106, Supplementary Fig. 47 source data", "result": 3.313}, {"measurement": "Th-T fluorescence, mean of three wells", "setting": "time-course reading M107, Supplementary Fig. 47 source data", "result": 3.319}, {"measurement": "Th-T fluorescence, mean of three wells", "setting": "time-course reading M108, Supplementary Fig. 47 source data", "result": 3.3191}, {"measurement": "Th-T fluorescence, mean of three wells", "setting": "time-course reading M109, Supplementary Fig. 47 source data", "result": 3.3293}, {"measurement": "Th-T fluorescence, mean of three wells", "setting": "time-course reading M110, Supplementary Fig. 47 source data", "result": 3.309}, {"measurement": "Th-T fluorescence, mean of three wells", "setting": "time-course reading M111, Supplementary Fig. 47 source data", "result": 3.3187}, {"measurement": "Th-T fluorescence, mean of three wells", "setting": "time-course reading M112, Supplementary Fig. 47 source data", "result": 3.343}, {"measurement": "Th-T fluorescence, mean of three wells", "setting": "time-course reading M113, Supplementary Fig. 47 source data", "result": 3.364}, {"measurement": "Th-T fluorescence, mean of three wells", "setting": "time-course reading M114, Supplementary Fig. 47 source data", "result": 3.378}, {"measurement": "Th-T fluorescence, mean of three wells", "setting": "time-course reading M115, Supplementary Fig. 47 source data", "result": 3.333}, {"measurement": "Th-T fluorescence, mean of three wells", "setting": "time-course reading M116, Supplementary Fig. 47 source data", "result": 3.348}]}]}
